Assay results published in patent US20060160897A1, “Topical Use of Valproic Acid for the Prevention or Treatment of Skin Disorders” (priority 2003, published 2006).

Key:
IL-2 and TNF-α = IL-2 and TNF-α ELISA, supernatants of stimulated peripheral blood lymphocytes; type: cell-based, human
Procedure: Monocyte and macrophage depleted peripheral blood mononuclear cells were obtained from consenting adults via separation using Ficoll-Hypaque. The peripheral blood mononuclear cells (PBMC) fraction was washed and seeded in 9 cm petri dishes. After an incubation of 2 hours at 37° C. to remove most of the monocytes, macrophages, and B-cells, the non-adherent cells were collected and cultured in 175 cm^2 flasks for 2 days. Cells were harvested and adjusted to 3 million cells per ml. Aliquots of 500 μl were transferred to each well of 24-well flat bottom plates. Peripheral blood lymphocytes (PBL's) were treated with various concentrations of HDAC inhibitors as indicated. After a 2 hours incubation time at 37° C. cells were stimulated with phorbol 12-myristate 13-acetate (PMA)/ionomycin (Ion) or activated via T cell receptor (TCR/CD3) complex with 10 μg/ml anti-CD3 mAb (OKT3) and 2.5 μg/ml anti-CD28 mAb. After 24 hours at 37° C. the supernatant was removed and frozen for cytokine assays. Cell pellets were lysed and total RNA was isolated using the RNeasy mini kit from Qiagen.
To perform ELISAs, supernatants of treated and untreated PBL's were collected and IL-2 as well as TNF-α were measured using the Duo Set ELISA Development System (R&D Systems) as described by the manufacturer.

HaCaT cells [1] = assay: Apoptosis assay, flow cytometry of Sub-G1 DNA containing cells; type: cell-based, human; details: drugs day 1, assay day 2, combinations VPA 1 mM + Tazarotene 1 or 2 μM, FIG. 5
Procedure: Apoptosis assays: Apoptosis was measured by a Beckton Dickinson FACScalibur flow cytometer by analysing the percentage of Sub-G1 DNA containing cells. 10000 events were recorded for each sample. The amplification scale was linear for all parameters. Photomultiplier tension was set as to place the peak DNA content corresponding cells in G0/G1 at channel 300 in the FL2-H vs SCC—H graphs. Cells showing a less than peak DNA content (hypodiploid cells) and high SSC—H (granular high condensed cells) were regarded as apoptotic. The experiments were repeated three times in duplicate. Error bars represent 1 standard deviation.
Cells were plated in 35 mm diameter wells on day 0. Drugs were added on day 1. The apoptosis assay was carried out on day 2. […] Thus, the combinatorial activity of these two drugs must be explained via synergistic activity of this treatment.

[2] = In vitro skin permeation assay, Franz type diffusion cell with SCE membranes; type: in vitro ADME, human; details: sodium valproate 3% (w/w) in Sepigel gel, SCE membranes 0.75 cm^2, 10 h, 35° C.; FIG. 6
Procedure: The resulting gel was stored at room temperature for 24 h prior to use.
In vitro skin permeation assay: The analyses were carried out using a Franz type glass diffusion cell (LGA, Berkeley, Calif., USA) assembled with membranes carrying stratum corneum and epidermis (SCE). Adult human skin samples (mean age 29±5 years) were obtained from abdominal reduction surgery. Subcutaneous fat was trimmed and the skin samples were immersed in distilled water at 60° C. for 1 min; then stratum corneum and epidermis (SCE) were peeled off The SCE samples were dried at room temperature in a desiccator maintained at approximately 25% relative humidity. […] Skin barrier integrity of the SCE membranes used in this protocol was assessed by determining their tritiated water permeability coefficient (Kp). […] All samples were analyzed for sodium valproate contents by means of an HPLC with spectrofluorimetric detection. The results were expressed as total amount permeated (mg).
Quantitative determination of Sodium Valproate: To determine sodium valproate, samples were derivatized with 4-bromomethyl-7-methoxycoumarin (BMMC). […]
Adult human skin samples (skin surface area was 0.75 cm^2) were prepared as described in the methods section. […] All samples were analyzed for sodium valproate contents by means of an HPLC with spectrofluorimetric detection. The results were expressed as total amount permeated (mg).

HaCaT cells [3] = assay: MTT assay, growth of human immortalized keratinocytes; type: cell-based
Procedure: MTT assay: This calorimetric assay detects the formation of formazan which is proportional to the number of cells present. Tissue culture medium containing drugs was removed and 200 μl of DME containing 2 mg/ml MTT ((3-4, 5-dimethyl thiazol-2yl) 2,5-diphenyltetrazolium bromide) was added to each well. 96-well plates were incubated at 37 ° C., and 10% CO2 for 30 minutes. Medium containing MTT was then removed and the cells were washed once with PBS. Following removal of the PBS, 200 μL DMSO was added to each well and plates were placed on a rotating platform shaker for 5 minutes. Results were obtained by reading the absorbance at a wavelength of 550 nm using a spectrophotometer. Results are expressed as percentages setting the control as 100%.
FIG. 1 graphically depicts the results of growth assays performed on human immortalized keratinocytes (HaCaT cells), treated for three days with the indicated compounds. Drugs were added on the same day of plating (day 0). The MTT assay (to measure cell proliferation) was carried out on day 3. Various combinations of the drugs were used in the growth assays.
Cells were plated in wells on day 0. […] The MTT assay was carried out on day 3. Various combinations of the drugs were also used in the growth assays. […] Thus, the combinatorial activity of these two drugs must be explained via synergistic activity of this treatment.
Drugs were added on the same day of plating (day 0). The MTT assay (to measure cell proliferation) was carried out on the third day. […] Thus, this combinatorial activity of these two drugs must be explained via synergistic activity of this treatment.

[4] = 1 mM, other experiments, PBLs stimulated with PMA/ION and CD3/CD28 mAbs, FIG. 16
[5] = PBLs, increasing concentrations two hours, CD3 and CD28 mAbs 24 hours, FIG. 15

## CCCC(CCC)C(=O)O [VPA, 2-propyl-pentanoic acid]
IL-2 and TNF-α; 0.5 mM, PBLs, CD3/CD28, FIG. 15
  IL-2 secretion: only moderate effect
IL-2 and TNF-α; 1 mM, PBLs, CD3/CD28, FIG. 15
  IL-2 secretion: only moderate effect
IL-2 and TNF-α; [4]
  IL-2 secretion: significant decrease
  TNF-α secretion: significant decrease
IL-2 and TNF-α; 5 mM, PBLs, CD3/CD28, FIG. 15
  IL-2 secretion: significantly reduced
IL-2 and TNF-α; [5]
  IL-2 secretion, dose-response: dose-dependent inhibition
  TNF-α secretion, dose-response: dose-dependent inhibition
HaCaT cells [1]
  apoptosis (Sub-G1 DNA containing cells): clear increase in subG1 DNA content
[2]
  permeation of human skin (total amount permeated): permeates the skin in a time dependent manner
HaCaT cells [3]; MTT on day 3, combinations VPA 1 mM + Retinoic Acid 1 or 2 μM, FIG. 2
  cell growth (MTT assay): inhibited growth
HaCaT cells [3]; MTT on the third day, 5 μM or 10 μM 5-FU and 1 mM VPA, FIG. 3
  cell growth (MTT assay): inhibited growth
HaCaT cells [3]; treated three days, MTT on day 3, combinations VPA 1 mM + Tazarotene 1 or 2 μM, FIG. 1
  cell growth (MTT assay): inhibited cell growth
